Results: patent US20250339404A1, “COMBINATION THERAPY USING A CD47-SIRP alpha BLOCKING AGENT AND AZACITIDINE” (Aurigene Oncology Limited, priority 2024, published 2025)
“Also recorded” adds a separate entry of the source. Where a name gives a salt, the structure may show the parent alone.

Legend:
HL-60 cells = experiment: Phagocytosis of HL-60 cells by human macrophages; type: cell-based
Protocol: The objective of this study was to determine the effect of Calcium salt of compound of formula (I) and azacitidine mediated induction of phagocytosis of HL-60 cells by human macrophages. Different doses of Calcium salt of compound of formula (I) were tested to determine increase in phagocytosis of HL-60 cells (with or without azacitidine treatment) by macrophages isolated from healthy human volunteers.
Preparation of test compound: 20 mM stock concentration of Calcium salt of compound of formula (I) was prepared. The stock was further diluted to get intermediate and final concentrations. The final assay volume was 200 μL. Medium used for dilution is RPMI media. Four concentrations of Calcium salt of compound of formula (I) ranging from 10 μM to 0.3 μM were used in the assay.
Preparation of macrophage culture media: 5 mL of FBS and 10 μL of recombinant human M CSF (100 μg/mL stock) was added to 45 mL of RPMI to prepare macrophage culture media as and when required.
Preparation of HL-60 cell culture media: 10 mL of FBS was added to 40 mL of IMDM media to prepare HL-60 cell culture media.
Preparation of working stock of azacitidine: A 20 mM stock of azacitidine prepared by adding 172.1 μL of DMSO in 0.84 mg of azacitidine. 4.5 μL of 20 mM stock of azacitidine was added to 25.5 μL of DMSO to prepare 3 mM azacitidine working stock solution. This is 1000× of the desired final treatment concentration of 3 μM.
Preparation of working stock of Mouse IgG1 Kappa isotype control: Molarity of mouse IgG1 kappa isotype control antibody was calculated using online molarity calculator (https://www.graphpad.com/quickcalcs/Molarityform.cfm). Formula weight of antibody was 150 KDa. Molarity of isotype control antibody stock was 6.6667 μM. 3 μL of isotype control antibody stock solution was added to 197 μL RPMI media to prepare 100 nM of working stock solution. This is 10× stock of the required conc of isotype control. Preparation of working stock of anti-human CD47 antibody Molarity of anti-human CD47 antibody was calculated using online molarity calculator (https://www.graphpad.com/quickcalcs/Molarityform.cfm). Formula weight of anti-Human CD47 antibody was 150 KDa. Molarity of anti-human CD47 antibody stock was 6.6667 μM. This stock of anti-human CD47 antibody was further diluted to get intermediate and final concentrations as described below. 3 μL of anti-human CD47 antibody stock solution was added to 197 μL RPMI media to prepare 100 nM of working stock solution (10×).
Preparation of test system: 90 mL whole blood from healthy volunteer was collected in a Na-Heparin vacutainer and stored at room temperature until use. PBMCs isolated from blood were used for isolating monocytes and to differentiate them into macrophages for the phagocytosis assay.
90 mL blood was collected from healthy volunteer in NA-Heparin vacutainer. PBMCs were isolated and were resuspended in 50 mL serum free RPMI 1640 media. For isolation of monocytes, 10 mL of PBMC cell suspension was seeded in each T75 culture flask (total 5 flasks) and were cultured at 37 degree for 2 hours. Monocytes were attached to culture flask by adherence method. Media from these flasks was discarded and attached monocytes were washed once with prewarmed PBS. Monocytes were further cultured in 10 mL of macrophage culture media and were differentiated to macrophages for 10 days. Media from each flask was changed every alternate day or after every 2 days with fresh macrophage culture media.
A vial of HL-60 cell stock was taken from liquid nitrogen. Cells were thawed in a water bath at 37° C. till the last crystal is thawed. Cells were transferred to 50 mL of culture media in a falcon tube and centrifuged at 800 rpm for 8 minutes. Cells were further cultured in 20 mL of HL-60 cell culture media in T75 flasks at 37° C. at 5% CO2 for 24 hrs. After 24 hrs, the cells were centrifuged at 800 rpm for 5 mins. The cells were cultured in 25 mL of complete media at 37° C. and 5% CO2 for 2 more days. […]

[1] = Phase I/IIa open label dose-escalation safety study in subjects with relapsed advanced malignancies; type: in vivo, human; conditions: for Grade 3 or 4 toxicities / adverse events: correlated with the Test Product
From the text: Study objective: To evaluate the overall safety profile of the compound of formula (I) in human subjects with relapsed advanced malignancies.
The following table summarizes the (final) study protocol.

[2] = system: Chemokines (MCP-3, MCP-1, MIP-1α & MIP-1β) and Cytokines (IL-12p40, IL-1A, IL-8, TNFα & IL-6); experiment: Pharmacodynamic biomarkers in the Phase I/IIa study; type: in vivo, human; conditions: all cohorts, as a result of treatment
From the text: Chemokines are known for their role in recruitment of macrophages to sites of infection, damage, or tumors for the purpose of phagocytosis and healing. An upregulation of chemokines followed by administration of the compound of formula (I) is indicative of the CD-47 inhibition mediated enhanced phagocytosis. Disruption of the IL-6-STAT3 axis is known to reduce the ability of tumor cells to escape phagocytosis (Jing Chen et al. Oncoimmunology 2019, VOL. 8, NO. 11, e1652540). A drop in IL-6 level is also indicative of macrophage activation.

[3] = Azacitidine 3 μM alone, HL-60 cells treated 72 hrs
[4] = 0.3 μM, DMSO treated HL-60 cells
[5] = 10 μM, DMSO treated HL-60 cells, normalized to 10 nM anti-human CD47
[6] = all subjects, across dose levels 25-400 mg BID oral

Nc1ncn([C@@H]2O[C@H](CO)[C@@H](O)[C@H]2O)c(=O)n1 [Azacitidine, 4-Amino-1-β-D-ribofuranosyl-s-triazin-2(1H)-one]
increase in phagocytosis of HL-60 cells (HL-60 cells; 3 μM azacitidine treatment of HL-60 cells alone): 71.26% | % Normalized phagocytosis Replicate 1 (HL-60 cells; [3]): 76.25% | % Normalized phagocytosis Replicate 2 (HL-60 cells; [3]): 66.28%

N=C(N)NCCC[C@H](NC(=O)N1CCCC1C(=O)O)c1nc([C@@H](N)CCC(=O)O)no1 (stereo partly shown) [Calcium salt of compound of formula (I)]
Grade 3 or 4 toxicities / adverse events ([1]; all cohorts): No Grade 3 or 4 toxicities | causality assessment of the serious adverse events ([1]; by principal investigators and study sponsor): Not Related | serious adverse events reported ([1]; one in cohort 2 (50 mg BID), one in cohort 3 (100 mg BID)): Two serious adverse events were reported | % Normalized phagocytosis Replicate 1 (HL-60 cells; [4]): −1.92% | % Normalized phagocytosis Replicate 2 (HL-60 cells; [4]): −10.34% | % Normalized phagocytosis Replicate 1 (HL-60 cells; 1 μM, DMSO treated HL-60 cells): 19.54% | % Normalized phagocytosis Replicate 2 (HL-60 cells; 1 μM, DMSO treated HL-60 cells): 4.98% | % Normalized phagocytosis Replicate 1 (HL-60 cells; 3 μM, DMSO treated HL-60 cells): −10.34% | % Normalized phagocytosis Replicate 2 (HL-60 cells; 3 μM, DMSO treated HL-60 cells): −14.94% | increase in phagocytosis of HL-60 cells (HL-60 cells; 10 μM alone): 54.79% | % Normalized phagocytosis Replicate 1 (HL-60 cells; [5]): 62.35% | % Normalized phagocytosis Replicate 2 (HL-60 cells; [5]): 47.13%

N=C(N)NCCC[C@H](NC(=O)N1CCC[C@@H]1C(=O)O)c1nc([C@@H](N)CCC(=O)O)no1 [Compound of formula (I)]
severity of reported non-serious adverse events ([1]; all cohorts, NCI CTCAE v 5.0): mild to moderate | Grade 3 or 4 toxicities / adverse events ([1]; all cohorts): no grade 3 or grade 4 adverse events | Grade 3 or 4 toxicities / adverse events ([1]; all cohorts, listed as compound of formula (I)): no grade 3 or grade 4 adverse events | DLT (Dose Limiting Toxicity) [1, 6]: without any DLT | hemolytic anemia [1, 6]: No hemolytic anemia was reported in any subject; also recorded: no hemolytic anemia in any of the tested subjects | tolerability of treatment ([1]; all subjects, across dose levels 25-400 mg BID oral, up to 4 cycles of 28 days): well tolerated | hemolytic anemia ([1]; all subjects, across dose levels 25-400 mg BID oral, listed as compound of formula (I)): no hemolytic anemia in any of the tested subjects | safe and tolerable total daily dose ([1]; oral, total daily dose): ≤ 800 mg | safe and tolerable dose ([1]; per oral BID): ≤ 400 mg | Serious Adverse Reactions (SAR's) or Suspected Unexpected Serious Adverse Reactions (SUSAR's) ([1]; reporting period): No Serious Adverse Reactions (SAR's) or Suspected Unexpected Serious Adverse Reactions (SUSAR's) were reported | dose reductions due to treatment-related AEs ([1]; reporting period): no dose reductions | IL12p40, TNFα, MCP-1, MIP-1α, MIP-1β and MCP-3 levels [2]: a trend towards upregulation | IL-6 and IL-1α levels [2]: a trend towards downregulation
